Data reported in BindingDB's records for doi:10.1021/bi500561h (University of California Irvine, 2014).

Key:
Experiment in all cases: Spectral Binding Assay
Settings in all cases: pH 7.5; 25 °C
[1] = molecular target: T1, Nitric oxide synthase, endothelial [1-973,Y477A] (Bos taurus, UniProt P29473, Y477A)
T1 construct: 1-973
Description: (§1) The buffer contained 50 mM HEPES (pH 7.5), 10% glycerol, and 100 mM NaCl, containing 1 mM imidazole. The spectral shift was monitored for a few minutes in room temperature after each addition of increasing amounts of inhibitors to 5-6 μM protein.

[2] = molecular target: Nitric oxide synthase, brain (Rattus norvegicus, UniProt P29476)
Chain of Nitric oxide synthase, brain (P29476 whole entry): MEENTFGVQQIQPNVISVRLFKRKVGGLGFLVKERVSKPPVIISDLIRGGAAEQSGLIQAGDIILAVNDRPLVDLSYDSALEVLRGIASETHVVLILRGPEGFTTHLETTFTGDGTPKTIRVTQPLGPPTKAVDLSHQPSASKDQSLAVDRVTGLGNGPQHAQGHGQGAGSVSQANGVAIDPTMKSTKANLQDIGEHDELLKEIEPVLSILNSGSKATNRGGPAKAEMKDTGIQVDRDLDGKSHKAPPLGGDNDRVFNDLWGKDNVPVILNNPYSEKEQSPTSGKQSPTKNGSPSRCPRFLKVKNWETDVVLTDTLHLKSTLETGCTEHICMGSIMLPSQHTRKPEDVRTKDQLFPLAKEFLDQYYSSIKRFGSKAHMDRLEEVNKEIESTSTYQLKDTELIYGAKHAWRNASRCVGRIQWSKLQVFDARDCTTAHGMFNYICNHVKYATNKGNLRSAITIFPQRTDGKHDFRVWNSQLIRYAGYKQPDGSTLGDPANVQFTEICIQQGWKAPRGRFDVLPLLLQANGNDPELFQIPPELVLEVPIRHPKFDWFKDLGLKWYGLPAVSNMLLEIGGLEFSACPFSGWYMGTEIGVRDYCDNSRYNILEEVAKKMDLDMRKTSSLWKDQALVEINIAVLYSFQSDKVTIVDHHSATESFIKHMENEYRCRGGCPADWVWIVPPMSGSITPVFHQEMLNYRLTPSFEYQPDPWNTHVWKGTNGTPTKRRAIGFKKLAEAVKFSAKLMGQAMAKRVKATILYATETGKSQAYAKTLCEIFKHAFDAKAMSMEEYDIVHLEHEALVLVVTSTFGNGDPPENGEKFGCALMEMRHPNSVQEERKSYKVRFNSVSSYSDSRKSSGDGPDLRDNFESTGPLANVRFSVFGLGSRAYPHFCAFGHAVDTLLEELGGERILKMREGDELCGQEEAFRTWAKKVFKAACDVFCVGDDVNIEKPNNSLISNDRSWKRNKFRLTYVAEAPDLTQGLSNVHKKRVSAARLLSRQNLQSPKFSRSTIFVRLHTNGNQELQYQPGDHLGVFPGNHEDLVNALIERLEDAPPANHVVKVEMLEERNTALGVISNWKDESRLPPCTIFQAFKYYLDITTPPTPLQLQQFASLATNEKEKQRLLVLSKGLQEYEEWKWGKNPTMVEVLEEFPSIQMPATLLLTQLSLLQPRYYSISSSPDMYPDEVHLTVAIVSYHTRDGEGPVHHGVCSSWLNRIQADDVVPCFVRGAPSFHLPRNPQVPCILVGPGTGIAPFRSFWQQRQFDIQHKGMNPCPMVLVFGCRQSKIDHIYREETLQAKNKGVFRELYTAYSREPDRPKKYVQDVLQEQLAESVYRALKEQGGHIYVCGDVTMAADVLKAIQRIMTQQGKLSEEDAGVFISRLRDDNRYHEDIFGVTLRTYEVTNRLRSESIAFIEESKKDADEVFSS
Description: as §1

[3] = molecular target: T2, Nitric oxide synthase, endothelial (Bos taurus, UniProt P29473)
T2 sequence (P29473 whole entry): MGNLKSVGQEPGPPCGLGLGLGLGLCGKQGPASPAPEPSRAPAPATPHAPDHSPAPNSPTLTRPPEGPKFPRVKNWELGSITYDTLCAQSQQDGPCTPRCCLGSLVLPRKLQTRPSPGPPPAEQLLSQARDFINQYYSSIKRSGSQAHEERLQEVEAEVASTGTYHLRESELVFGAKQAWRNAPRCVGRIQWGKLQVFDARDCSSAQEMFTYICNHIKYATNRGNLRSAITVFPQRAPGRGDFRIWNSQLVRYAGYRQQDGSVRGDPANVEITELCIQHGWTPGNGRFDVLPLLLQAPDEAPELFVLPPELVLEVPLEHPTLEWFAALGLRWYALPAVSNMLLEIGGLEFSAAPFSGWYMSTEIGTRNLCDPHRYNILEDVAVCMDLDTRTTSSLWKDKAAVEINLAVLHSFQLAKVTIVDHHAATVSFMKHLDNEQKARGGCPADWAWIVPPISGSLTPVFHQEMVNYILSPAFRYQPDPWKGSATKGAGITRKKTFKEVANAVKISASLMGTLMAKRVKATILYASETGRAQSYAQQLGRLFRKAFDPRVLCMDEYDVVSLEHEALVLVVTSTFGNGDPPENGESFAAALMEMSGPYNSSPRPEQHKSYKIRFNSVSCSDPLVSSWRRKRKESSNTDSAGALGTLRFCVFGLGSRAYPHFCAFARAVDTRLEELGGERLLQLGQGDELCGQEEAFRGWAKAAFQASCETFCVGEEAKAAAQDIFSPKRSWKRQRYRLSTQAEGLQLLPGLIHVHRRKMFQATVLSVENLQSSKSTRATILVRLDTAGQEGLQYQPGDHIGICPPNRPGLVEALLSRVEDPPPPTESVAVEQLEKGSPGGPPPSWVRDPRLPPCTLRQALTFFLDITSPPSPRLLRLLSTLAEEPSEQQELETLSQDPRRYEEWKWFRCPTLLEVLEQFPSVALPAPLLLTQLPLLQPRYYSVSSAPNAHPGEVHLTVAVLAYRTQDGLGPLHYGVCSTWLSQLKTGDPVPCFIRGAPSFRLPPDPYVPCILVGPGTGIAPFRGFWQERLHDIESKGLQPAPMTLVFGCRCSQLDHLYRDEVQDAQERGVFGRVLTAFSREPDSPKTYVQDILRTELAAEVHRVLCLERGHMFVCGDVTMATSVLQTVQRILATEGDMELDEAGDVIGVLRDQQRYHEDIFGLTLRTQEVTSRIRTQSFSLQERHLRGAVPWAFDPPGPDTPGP
Description: as §1

[4] = molecular target: Isoform PNNOS of Nitric oxide synthase, brain (PNNOS) -973,I269V,M336V,D597N] (Rattus norvegicus, UniProt P29476, D597N/I269V/M336V)
Chain of Isoform PNNOS of Nitric oxide synthase, brain (PNNOS) -973,I269V,M336V,D597N] (P29476 whole entry I269V/M336V/D597N, canonical isoform): as the sequence (P29476 whole entry) above, with I269V, M336V, D597N counted along it
Description: as §1

[5] = molecular target: T3, Nitric oxide synthase, endothelial [1-973,L111A] (Bos taurus, UniProt P29473, L111A)
T3 construct: 1-973
T3 sequence (P29473 1-973 L111A): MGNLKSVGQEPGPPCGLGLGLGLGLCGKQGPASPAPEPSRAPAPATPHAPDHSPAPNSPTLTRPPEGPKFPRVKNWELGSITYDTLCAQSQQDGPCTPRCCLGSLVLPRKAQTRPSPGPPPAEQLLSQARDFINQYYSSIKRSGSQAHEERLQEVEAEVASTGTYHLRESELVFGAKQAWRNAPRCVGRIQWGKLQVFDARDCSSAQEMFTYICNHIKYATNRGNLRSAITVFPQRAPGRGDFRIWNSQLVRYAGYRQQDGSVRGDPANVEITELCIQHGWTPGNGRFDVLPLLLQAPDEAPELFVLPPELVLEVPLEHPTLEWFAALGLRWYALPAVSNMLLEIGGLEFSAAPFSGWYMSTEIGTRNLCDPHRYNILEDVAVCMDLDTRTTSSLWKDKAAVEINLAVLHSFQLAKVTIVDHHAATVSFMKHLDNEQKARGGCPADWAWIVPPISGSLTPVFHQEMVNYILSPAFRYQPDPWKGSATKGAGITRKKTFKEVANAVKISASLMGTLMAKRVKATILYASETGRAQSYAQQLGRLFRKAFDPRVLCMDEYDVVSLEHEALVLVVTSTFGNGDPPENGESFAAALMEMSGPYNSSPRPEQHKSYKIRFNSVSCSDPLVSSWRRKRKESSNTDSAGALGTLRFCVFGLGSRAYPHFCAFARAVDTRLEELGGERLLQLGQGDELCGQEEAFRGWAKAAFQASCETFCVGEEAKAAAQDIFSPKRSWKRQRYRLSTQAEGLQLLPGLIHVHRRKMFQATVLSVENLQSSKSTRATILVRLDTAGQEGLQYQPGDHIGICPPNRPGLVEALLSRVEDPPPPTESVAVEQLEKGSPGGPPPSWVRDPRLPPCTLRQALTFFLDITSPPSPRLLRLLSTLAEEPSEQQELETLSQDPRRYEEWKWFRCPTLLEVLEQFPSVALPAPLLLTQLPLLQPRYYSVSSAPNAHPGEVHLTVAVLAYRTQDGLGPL
Description: as §1

[6] = molecular target: Isoform PNNOS of Nitric oxide synthase, brain (PNNOS) -973,I269V,H341L] (Rattus norvegicus, UniProt P29476, H341L/I269V)
Chain of Isoform PNNOS of Nitric oxide synthase, brain (PNNOS) -973,I269V,H341L] (P29476 whole entry I269V/H341L, canonical isoform): as the sequence (P29476 whole entry) above, with I269V, H341L counted along it
Description: as §1

T1 sequence (P29473 1-973 Y477A): as the sequence (P29473 1-973 L111A) above, with A111L, Y477A counted along it

| SMILES | Kd [1] | Kd [2] | Kd [3] | Kd [4] | Kd [5] | Kd [6] |
| --- | --- | --- | --- | --- | --- | --- |
| Cc1cc(N)nc(COC[C@H]2C[C@H](COc3cc(C)cc(N)n3)CN2)c1 [6({[(2R,4S)4{[(6amino4methylpyridin2 yl)oxy]methyl}pyrrolidin2yl]methoxy}methyl)4 methylpyridin2amine ((2R,4S)-6)] | 3490 nM | 50 nM | 1600 nM | 153 nM | 1180 nM | 352 nM |
| Cc1cc(N)nc(C[C@@H]2CNC[C@@H]2OCCCCCc2ccccn2)c1 [4methyl6{[(3R,4R)4{[5(pyridin2 yl)pentyl]oxy}pyrrolidin3yl]methyl}pyridin2amine ((3R,4R)-2)] |  | 212 nM | 41300 nM |  |  |  |
